Values joined by “and” are separate entries in the source; they are usually repeats but may differ in a detail not shown here. Identical values can stand only once. Like-named read-outs stand apart in the source and are kept apart here. One block for each substance: values may come before it. Where no end group is shown, it is not given here. The star is where a group is joined. Acm = CC(=O)NC*
How the values were obtained:
[1] = test system: human platelets in platelet-rich plasma; assay: Platelet aggregation inhibition assay (ADP-induced, platelet-rich plasma); assay type: cell-based
Protocol: Platelet aggregation studies were performed essentially as described by Zucker (1989, Methods in Enzymol. 169: 117-133). Briefly, platelet aggregation was assayed with or without putative platelet aggregation inhibitory compounds using fresh human platelet-rich plasma, comprising 300,000 platelets per microliter. Platelet aggregation was induced by the addition of a solution of adenosine diphosphate to a final concentration of 10 to 15 micromolar, and the extent of platelet aggregation monitored using a Bio/Data aggregometer (Bio/Data Corp., Horsham, Pa.). The concentrations of platelet aggregation inhibitory compounds used were varied from 0.1 to 500 μg/mL. The concentration of inhibitor that reduced the extent of platelet aggregation by 50% (defined as the IC50) was determined from plots of inhibitor concentration versus extent of platelet aggregation. An inhibition curve for peptide RGDS was determined for each batch of platelets tested.
**concentration of reagent that inhibits by 50% the aggregation of human
platelets in plateletrich plasma induced to aggregate by the addition of
adenosine diphosphate (ADP)

[2] = test system: femoral vein thrombus; assay: Canine model of DVT: thrombus uptake and imaging of Tc-99m labeled reagent; assay type: in vivo; conditions: approximately 4 h postinjection
Protocol: *ratio of (% injected dose/g in a femoral vein thrombus)/(% injected
dose/g in blood) at approximately 4 h postinjection of each Tc99 m labele
reagent in a canine model of DVT

[3] = test system: deep-vein thrombi; assay: Pilot human clinical study: scintigraphic imaging of deep-vein thrombi; assay type: in vivo; conditions: Tc-99m labeled
Protocol: A series of experiments comprising a pilot human clinical study of one embodiment of the scintigraphic imaging agents of the invention, designated P280, having the chemical structure:
were performed. These experiments were performed on 9 human patients (6 males, 3 females), ages 30 to 60 years and weighing 63 to 100 kg. Each of the patients presented clinically with the symptoms of deep-vein thrombosis, and the diagnosis was confirmed by physical work-up, ultrasonography and/or contrast venography.
Each patient in the study was administered 10-22 mCi Tc-99m labeled P280 comprising approximately 0.25 mg peptide, by intravenous injection. Scintigraphic imaging was then performed over four hours using a large field-of-view gamma camera equipped with a high-resolution collimator (photopeaked at 140 keV, with a 20%±window). Gamma camera imaging was commenced simultaneously with injection. Anterior images followed by posterior images over the legs were acquired over the first hour, then at 2 and 4 hours post-injection.

[4] = test system: femoral vein thrombus; assay: Canine model of DVT: thrombus uptake and imaging of Tc-99m labeled reagent; conditions: in vivo canine model system
[5] = human platelet-rich plasma, aggregation induced by ADP, read-out: IC50 (concentration of reagent that inhibits by 50% the aggregation of human platelets)

IC50 [1, 5]: 300 nM
Substance: CH2 CO--YD ApcGDCGGGCAm GCAcm amide [Peptide P154]
Clot/Blood: ratio of (% injected dose/g in a femoral vein thrombus)/(% injected dose/g in blood) [2]: 2.0 ± 0.5

IC50 [1, 5]: 1300 nM
Substance: CH2 CO--YD RGDCGGCAcm GCAcm amide [Peptide P143]
Clot/Blood: ratio of (% injected dose/g in a femoral vein thrombus)/(% injected dose/g in blood) [2]: 1.4

IC50 [1, 5]: 26000 nM
Substance: CAcm GCAcm RRRRRRRRRGDV (SEQ ID NO: 5) (C(Acm)GC(Acm)RRRRRRRRRGDV) [Peptide P32]
Clot/Blood: ratio of (% injected dose/g in a femoral vein thrombus)/(% injected dose/g in blood) [2]: 1.2 ± 0.2

IC50 [1, 5]: 850 nM
Substance: CH2 CO--YD ApcGDCGGCAcm GCAcm GGC-amide [Peptide P246]
Clot/Blood: ratio of (% injected dose/g in a femoral vein thrombus)/(% injected dose/g in blood) [2]: 4.4 ± 1.8

IC50 [1, 5]: 25000 nM
Substance: CH2 CO--YD RGDCCAcm GCAcm amide [Peptide P81]
Clot/Blood: ratio of (% injected dose/g in a femoral vein thrombus)/(% injected dose/g in blood) [2]: 1.8 ± 0.6

IC50 [1, 5]: 23000 nM
Substance: AcSYGRGDVRGDFKCAcm GCAcm (SEQ ID NO: 6) (Ac-SYGRGDVRGDFKC(Acm)GC(Acm)) [Peptide P47]
Clot/Blood: ratio of (% injected dose/g in a femoral vein thrombus)/(% injected dose/g in blood) [2]: 1.0

IC50 [1, 5]: 15000 nM
Substance: GRDGVRGDFCAcm GCAcm amide(SEQ ID NO: 8) (GRDGVRGDFC(Acm)GC(Acm)-NH2; N-terminus assumed; SMILES CC(=O)NCSC[C@H](NC(=O)CNC(=O)[C@H](CSCNC(C)=O)NC(=O)[C@H](Cc1ccccc1)NC(=O)[C@H](CC(=O)O)NC(=O)CNC(=O)[C@H](CCCNC(=N)N)NC(=O)[C@@H](NC(=O)CNC(=O)[C@H](CC(=O)O)NC(=O)[C@H](CCCNC(=N)N)NC(=O)CN)C(C)C)C(N)=O) [Peptide P98]
Clot/Blood: ratio of (% injected dose/g in a femoral vein thrombus)/(% injected dose/g in blood) [2]: 1.7

IC50 [1, 5]: 81 nM
Substance: (CH2 COYD.Apc.GDCGGCAcm GCAcm GGCamide)2 (CH2 CO)2 K(Nε-K)GCamide [Peptide P667]
Clot/Blood: ratio of (% injected dose/g in a femoral vein thrombus)/(% injected dose/g in blood) [2]: 5.9 and 5.0

The next lines start with the substance.

Substance: AcSYGRGDVRGDFKCTCCA (SEQ ID NO: 7) (Ac-SYGRGDVRGDFKCTCCA; cysteine pairing not given here) [Peptide P63]
IC50 [1, 5]: 19000 nM
Clot/Blood: ratio of (% injected dose/g in a femoral vein thrombus)/(% injected dose/g in blood) [2]: 1.7

Substance: GRGDVRGDFKCAcm GCAcm amide (SEQ ID NO: 3) (GRGDVRGDFKC(Acm)GC(Acm)-NH2; N-terminus assumed; SMILES CC(=O)NCSC[C@H](NC(=O)CNC(=O)[C@H](CSCNC(C)=O)NC(=O)[C@H](CCCCN)NC(=O)[C@H](Cc1ccccc1)NC(=O)[C@H](CC(=O)O)NC(=O)CNC(=O)[C@H](CCCNC(=N)N)NC(=O)[C@@H](NC(=O)[C@H](CC(=O)O)NC(=O)CNC(=O)[C@H](CCCNC(=N)N)NC(=O)CN)C(C)C)C(N)=O) [Peptide P97]
IC50 [1, 5]: 8000 nM
Clot/Blood: ratio of (% injected dose/g in a femoral vein thrombus)/(% injected dose/g in blood) [2]: 1.0

Substance: (CH2 CO.YD ApcGDCGGCAcm GCAcm GGC.amide)2 -BSME [Peptide P280]
IC50 ([1]; unlabeled reagent, read-out: IC50, platelet aggregation inhibition): 87 nM
patients in whom thrombi were visualized ([3]; 9 patients with confirmed DVT): 8 of the 9
toxicity or other adverse effects ([3]; 10-22 mCi, approximately 0.25 mg peptide i.v., human patients): no toxicity or other adverse effects
time after injection at which thrombus visualization was evident ([3]; human patients with DVT): 15 to 30 min
time post-injection for which thrombus remained visible ([3]; human patients with DVT): 4 to 24 h
scintigraphic images of deep-vein thrombi ([3]; humans in vivo): excellent scintigraphic images
injected dose remaining in the circulation ([3]; intravenous, 1 hour post-injection, human patients): less than 10%
injected dose cleared by the kidneys ([3]; intravenous, human patients): 60-70%
scintigraphic images of venous thrombi [4]: excellent scintigraphic images

Substance: (CH2 CO--YD ApcGDCKGCAcm GCAcm GGC-amide)2 -BSME [Peptide P381]
IC50 [1, 5]: 35 nM
Clot/Blood: ratio of (% injected dose/g in a femoral vein thrombus)/(% injected dose/g in blood) [2]: 2.5

Substance: (CH2 CO--YD ApcGDCGGCAcm GCAcm GGC-amide)3 -TSEA [Peptide P317]
IC50 [1, 5]: 36 nM
Clot/Blood: ratio of (% injected dose/g in a femoral vein thrombus)/(% injected dose/g in blood) [2]: 3.8 ± 2.2

Substance: (CH2 CO--YD ApcGDCGGCAcm GCAcm GGC-amide)2 -(BAT-BS) [Peptide P357]
IC50 [1, 5]: 79 nM
Clot/Blood: ratio of (% injected dose/g in a femoral vein thrombus)/(% injected dose/g in blood) [2]: 6.3 ± 3.4
